# In patent US20250230173A1, “SALT FORMS OF AN AXL INHIBITOR” (Arcus Biosciences, Inc., priority 2023, published 2025):
# “Also recorded” adds a separate entry of the source. Marks after values point to notes of the source that are not given here.
# Columns and labels:
# Format in all cases: physicochemical
# [1] = Stability study of selected solid forms, HPLC purity after 7 days of storage
# [2] = Stability study of selected solid forms, XRPD after 7 days of storage
# Source text: XRPD diffractograms were collected with a Bruker, D2 Phaser or Panalytical Empyrean X-ray diffractometer. Diffractograms can be read by one of skill in the art, for example, to determine if a chemical sample is the substantially the same, different, or represents a mixture of forms. When a diffractogram is “substantially in accordance” as another diffractogram, a person of skill in the art would regard the samples resulting in the two diffractograms as the same form or same mixture of forms, taking into account minor variations for instrumentation, conditions, and the like.
# A stability study comparing amorphous freebase Compound I, Freebase Form II, 2-Napsylate Form I, Fumarate Form I, Succinate Form I, and Camsylate Form I was conducted. HPLC measurements were taken after 7 days of storage at the indicated conditions.
# [3] = Form conversion of 2-Napsylate crystalline forms on vacuum drying or in slurry (XRPD); conditions: for Crystal form after drying: drying at 40° C. under vacuum (overnight)
# [4] = Stability of 2-Napsylate Form I under variable humidity (XRPD); conditions: RH 10% to 90% at 25° C., every 10% RH, 4 hr equilibration at each step
# Procedure: 2-Napsylate Form I was used to test form changes as a function of RH from 10% to 90% at 25° C. The XRPD data was collected every 10% RH (FIG. 20) with an equilibration time of 4 hr at each step.
# [5] = Hygroscopicity by DVS, XRPD before and after; conditions: two DVS cycles, 0-90% RH
# Procedure: Hygroscopicity of 2-Napsylate Forms I and VI were assessed using DVS. Samples of 2-Napyslate Form I and Form VI (7-20 mg) were placed separately into a tared sample chamber and automatically weighed.
# [6] = Storage at 40° C. and 75% RH for one week (XRPD)
# Procedure: The stability of 2-Napsylate Form I was compared with the stability of 2-[…] Form VI when stored at 40° C. and 75% RH for a period of one week.
# [7] = Long term and accelerated stability of 2-Napsylate Form I; conditions: for Changes on storage: as of 3 months
# Procedure: Samples of 2-Napsylate Form I were further tested for long term and accelerated stability. Samples of the compound are stored at conditions of either 2-8° C. (long term) or 25° C. and 60% RH (accelerated). Stability samples are packaged in double low-density polyethylene (LDPE) bags in a high-density polyethylene (HDPE) outer container.
# Samples are tested for appearance, assay, chemical purity, water content, microbial limits, and crystallinity.
# [8] = Stability of amorphous salt forms of Compound (I), HPLC purity loss on storage; conditions: for HPLC Purity Loss on Day 14 (%): 14 days at 40° C., 75% RH; for HPLC Purity Loss (%): stored at RT for 10 days under ambient humidity (~75% RH), purity on day 3 minus purity on day 10
# Procedure: (§1) HPLC analysis was performed with an Agilent HPLC 1260 series instrument.
# The stability of various amorphous salt forms of Compound (I) was also assessed. The salt forms, in general, were prepared by suspending Compound (I) in a suitable solvent at ambient temperature and adding the corresponding acid to the mixture. The mixtures were allowed to stir until a solution was formed, filtered to remove any trace solids, and the resulting filtrate lyophilized to access the salts as solids. Characterization by XRPD established that all salt forms were amorphous. […]
# [9] = Stability of freebase Compound (I) in amorphous form, HPLC purity on storage
# Procedure: as §1
# The stability of the freebase amorphous form of Compound (I), for example, as prepared in Example 1, was assessed by High Performance Liquid Chromatography (HPLC). […] Freebase Compound (I) in amorphous form was added to 5 separate vials. Each vial was sealed and stored for a period of 5 days at 20° C., 40° C., 60° C., 80° C., and 100° C., respectively. Purity was assessed by HPLC initially, and after 1, 3, and 5 days of storage.
# [10] = 7 days, 2° C., listed as Amorphous Freebase
# [11] = 7 days, 25° C., listed as Amorphous Freebase
# [12] = 7 days, 40° C. / 75% RH, listed as Amorphous Freebase
# [13] = T0, listed as Amorphous Freebase
structure (smiles),measurement,setting,value
Cc1cccnc1-c1ccc(-c2n[nH]c3ncc(-c4ccc5c(c4)CC[C@@H](N4C6COCC4C6)CC5)cc23)nc1 [2-Napsylate Form I],HPLC Purity (A %),"[1]; 7 days, 25° C.",99.82 A %
same,HPLC Purity (A %),"[1]; 7 days, 40° C. / 75% RH",99.35 A %
same,HPLC Purity (A %),"[1]; 7 days, 60° C.",99.21 A %
same,Chemical and physical stability compared to the other forms tested,[1]; Example 6 stability study,better chemical and physical stability; also recorded: improved chemical and physical stability
same,HPLC Purity (A %),[1]; T0,99.82 A %
same,XRPD (solid form),"[2]; 7 days, 25° C.",Form I
same,XRPD (solid form),"[2]; 7 days, 40° C. / 75% RH",Form I
same,XRPD (solid form),"[2]; 7 days, 60° C.",Form I
same,XRPD (solid form),[2]; T0,Form I
same,Crystal form after prolonged slurry,"[3]; slurry at 50° C., ACN/DMSO (11:1), after 20 days",Form IV + extra XRPD
same,Form change as a function of RH (XRPD),[4],No form change was observed
same,Form change after DVS testing (XRPD),[5],no form change
same,Stability on storage (XRPD),[6],stable
same,Assay ‘anhydrous and solvent-free basis’ (% w/w),"[7]; 2-8° C., 1 month",96.9 % w/w
same,Crystallinity,"[7]; 2-8° C., 1 month",Crystalline
same,Total impurity (% a/a),"[7]; 2-8° C., 1 month",1.7 % a/a
same,Water content (% w/w),"[7]; 2-8° C., 1 month",1.2 % w/w
same,Assay ‘anhydrous and solvent-free basis’ (% w/w),"[7]; 2-8° C., 3 months",96.1 % w/w
same,Crystallinity,"[7]; 2-8° C., 3 months",Crystalline
same,Total impurity (% a/a),"[7]; 2-8° C., 3 months",1.7 % a/a
same,Water content (% w/w),"[7]; 2-8° C., 3 months",1.8 % w/w
same,Assay ‘anhydrous and solvent-free basis’ (% w/w),"[7]; 2-8° C., 6 months",97.7 % w/w
same,Crystallinity,"[7]; 2-8° C., 6 months",Crystalline
same,Total impurity (% a/a),"[7]; 2-8° C., 6 months",1.4 % a/a
same,Water content (% w/w),"[7]; 2-8° C., 6 months",2.1 % w/w
same,Assay ‘anhydrous and solvent-free basis’ (% w/w),"[7]; 2-8° C., Initial",95.8 % w/w
same,Crystallinity,"[7]; 2-8° C., Initial",Crystalline
same,Total impurity (% a/a),"[7]; 2-8° C., Initial",1.5 % a/a
same,Water content (% w/w),"[7]; 2-8° C., Initial",0.87 % w/w
same,Assay ‘anhydrous and solvent-free basis’ (% w/w),"[7]; 25° C. and 60% RH, 1 month",96.8 % w/w
same,Total impurity (% a/a),"[7]; 25° C. and 60% RH, 1 month",1.8 % a/a
same,Water content (% w/w),"[7]; 25° C. and 60% RH, 1 month",1.2 % w/w
same,Assay ‘anhydrous and solvent-free basis’ (% w/w),"[7]; 25° C. and 60% RH, 3 months",95.2 % w/w
same,Total impurity (% a/a),"[7]; 25° C. and 60% RH, 3 months",1.8 % a/a
same,Water content (% w/w),"[7]; 25° C. and 60% RH, 3 months",1.6 % w/w
same,Assay ‘anhydrous and solvent-free basis’ (% w/w),"[7]; 25° C. and 60% RH, 6 months",96.2 % w/w
same,Total impurity (% a/a),"[7]; 25° C. and 60% RH, 6 months",1.6 % a/a
same,Water content (% w/w),"[7]; 25° C. and 60% RH, 6 months",2.1 % w/w
same,Assay ‘anhydrous and solvent-free basis’ (% w/w),"[7]; 25° C. and 60% RH, Initial",95.8 % w/w
same,Total impurity (% a/a),"[7]; 25° C. and 60% RH, Initial",1.5 % a/a
same,Water content (% w/w),"[7]; 25° C. and 60% RH, Initial",0.87 % w/w
same,Changes on storage,[7]; accelerated (25° C. and 60% RH),no significant changes
same,Changes on storage,[7]; long term (2-8° C.),no significant changes
Cc1cccnc1-c1ccc(-c2n[nH]c3ncc(-c4ccc5c(c4)CC[C@@H](N4C6COCC4C6)CC5)cc23)nc1 [Benzene Sulfonic],HPLC Purity Loss on Day 14 (%),[8],3.4%
Cc1cccnc1-c1ccc(-c2n[nH]c3ncc(-c4ccc5c(c4)CC[C@@H](N4C6COCC4C6)CC5)cc23)nc1 [Form X],Crystal form after drying,[3],amorphous after
Cc1cccnc1-c1ccc(-c2n[nH]c3ncc(-c4ccc5c(c4)CC[C@@H](N4C6COCC4C6)CC5)cc23)nc1 [Benzoate],HPLC Purity Loss (%),[8],3.0* %
Cc1cccnc1-c1ccc(-c2n[nH]c3ncc(-c4ccc5c(c4)CC[C@@H](N4C6COCC4C6)CC5)cc23)nc1 [Form V],Crystal form after drying,[3],Form VII after
Cc1cccnc1-c1ccc(-c2n[nH]c3ncc(-c4ccc5c(c4)CC[C@@H](N4C6COCC4C6)CC5)cc23)nc1 [Citrate],HPLC Purity Loss on Day 14 (%),[8],14.2%
Cc1cccnc1-c1ccc(-c2n[nH]c3ncc(-c4ccc5c(c4)CC[C@@H](N4C6COCC4C6)CC5)cc23)nc1 [Amorphous Compound (I) (freebase)],HPLC purity,"[9]; 40° C., Day 0",96.45 % purity
same,HPLC purity,"[9]; 40° C., Day 1",96.12% purity
same,HPLC purity,"[9]; 40° C., Day 3",95.87% purity
same,HPLC purity,"[9]; 40° C., Day 5",95.00% purity
same,HPLC purity,"[9]; 60° C., Day 0",96.45 % purity
same,HPLC purity,"[9]; 60° C., Day 1",95.92% purity
same,HPLC purity,"[9]; 60° C., Day 3",93.06% purity
same,HPLC purity,"[9]; 60° C., Day 5",92.39% purity
same,HPLC purity,"[9]; 80° C., Day 0",96.45 % purity
same,HPLC purity,"[9]; 80° C., Day 1",95.01% purity
same,HPLC purity,"[9]; 80° C., Day 3",91.87% purity
same,HPLC purity,"[9]; 80° C., Day 5",89.86% purity
same,HPLC purity,"[9]; 100° C., Day 0",96.45 % purity
same,HPLC purity,"[9]; 100° C., Day 1",90.13% purity
same,HPLC purity,"[9]; 100° C., Day 3",74.66% purity
same,HPLC purity,"[9]; 100° C., Day 5",68.00% purity
same,HPLC purity,"[9]; r.t., Day 0",96.45 % purity
same,HPLC purity,"[9]; r.t., Day 1",96.23% purity
same,HPLC purity,"[9]; r.t., Day 3",96.01% purity
same,HPLC purity,"[9]; r.t., Day 5",96.03% purity
same,Decomposition on storage (HPLC),"[9]; sealed vials, 5 days at 20° C., 40° C., 60° C., 80° C., 100° C.",underwent decomposition
same,HPLC Purity (A %),[1]; [10],97.68 A %
same,HPLC Purity (A %),[1]; [11],97.58 A %
same,HPLC Purity (A %),[1]; [12],96.88 A %
same,HPLC Purity (A %),[1]; [13],97.42 A %
same,XRPD (solid form),[2]; [10],Amorphous
same,XRPD (solid form),[2]; [11],Amorphous
same,XRPD (solid form),[2]; [12],Amorphous
same,XRPD (solid form),[2]; [13],Amorphous
Cc1cccnc1-c1ccc(-c2n[nH]c3ncc(-c4ccc5c(c4)CC[C@@H](N4C6COCC4C6)CC5)cc23)nc1 [Chloride],HPLC Purity Loss on Day 14 (%),[8],1.5%
same,HPLC Purity Loss (%),[8],6.6* %
